Laboratory results: patent US9107909B2, “Materials and methods to enhance hematopoietic stem cells engraftment procedures” (priority 2008, dated 2015)
Entries after “also recorded” stand apart in the source; their conditions may differ.

Columns and labels:
SKL cells = assay: HSPC homing to bone marrow in vivo; design: species or system mouse; conditions: for increase in in vivo marrow homing efficiency: pulse-exposed grafts or purified SKL cells, 16 hours post-transplant; for SKL cells homed to the marrow: vs vehicle-treated or un-manipulated cells
Experimental: CD45.2 WBM was labeled with CFSE (Molecular Probes, Eugene, Oreg.) washed and treated on ice with either 1 microMolar dmPGE2 or vehicle. After treatment, cells were washed and 2×10^7 cells transplanted into lethally irradiated CD45.2 mice. After 16 hours, femurs and tibias were flushed, and a proportion of mouse marrow Lin^+ cells depleted using MACS microbeads (Miltenyi Biotech), stained with fluorochrome-conjugated-antibodies specific for biotin (lineage), c-kit (K), and Sca-1 (S) and the total number of CFSE^+ WBM (non lineage depleted), KL and SKL cells determined. For congenic homing studies, Lin^neg CD45.1 cells were treated on ice with 1 microMolar dmPGE2, vehicle, or PBS. After incubation, cells were washed and 2×10^6 cells transplanted into CD45.2 mice. After 16 hours, recipient bone marrow was harvested, lineage depleted, stained, and donor CD45.1 SKL cells determined. For competitive, head-to-head homing studies using sorted SKL cells, Lin^neg cells from CD45.2 and CD45.1 mice were FACS sorted, cells treated with either dmPGE2 or vehicle for 2 hours, washed and 3×10^4 CD45.1 (vehicle or dmPGE2 treated) plus 3×10^4 CD45.2 (dmPGE2 or vehicle treated) SKL cells transplanted into lethally irradiated F1 Hybrid mice. To evaluate the role of CXCR4 in homing studies, Lin^neg CD45.2 cells were treated on ice with vehicle or 1 microMolar dmPGE2 plus 10 microMolar AMD3100 (AnorMed Inc., Vancouver, BC, Canada) and 2×10^6 treated cells injected into lethally irradiated CD45.1 mice. Homed SKL cells were analyzed 16 hours post-transplant.
Irrespective of its cause a marrow niche is required for HSPC to self-renew and differentiate and it is very likely that only HSPC homing to these niches can provide long-term repopulation. Referring now to FIG. 3A, in order to assess HSPC homing, CFSE labeled whole bone marrow (WBM) CD45.2 cells were pulsed with dmPGE2 or vehicle for 2 hours on ice, washed and injected IV in lethally irradiated CD45.2 hosts. After 16 hours, total CFSE^+ cells homing to bone marrow as well as the number of homed events within the KL and SKL cell populations were quantified.
Highly purified SKL cells from both CD45.2 and CD45.1 mice were isolated by FACS sorting, treated with dmPGE2 or vehicle, and 3×10^4 vehicle-treated CD45.1 cells plus 3×10^4 dmPGE2-treated CD45.2 cells transplanted into CD45.1/CD45.2 mice. An additional cohort was concurrently transplanted with congenic strain and treatment groups were switched to test for any bias in strain homing. […] Although SKL cells are not a homogenous HSPC population, they are highly enriched for LTRC (Okada et al., 1992; Spangrude and Scollay, 1990).
To evaluate the role of CXCR4 in homing, Lineage^neg CD45.2 cells were treated with vehicle or 1 microMolardmPGE2 plus 10 microMolar AMD3100, 2×10^6 treated cells injected into lethally-irradiated CD45.1 mice and homed SKL cells recovered 16 hours post-transplant and analyzed by FACS. Referring now to FIG. 11, homing efficiency of vehicle and dmPGE2 treated cells to bone marrow in the absence and presence of 10 microMolar AMD3100. Cells were incubated with AMD3100 for 30 minutes prior to the homing assay.

CXCR4 mRNA = assay: QRT-PCR of CXCR4 mRNA; assay type: cell-based; conditions: for time post-exposure of (maximal) CXCR4 mRNA upregulation: vs vehicle
Experimental: Total RNA was obtained using the absolutely RNA purification kit (Stratagene, La Jolla, Calif.). A constant amount of RNA was reverse transcribed with random primers (Promega, Madison, Wis.) and MMLV-reverse transcriptase (Promega) in a volume of 50 microLiter with 1 milliMolar dNTPs and RNase inhibitor as described (Fukuda and Pelus, 2001). DNase and RNase free water (Ambion, Austin, Tex.) was added to obtain a final concentration equivalent of 10 nanogram RNA/microLiter and 5 microLiter used for QRT-PCR. Primers for SYBR Green QRTPCR were designed to produce an amplicon size of 75-150 bp. QRT-PCR was performed in a total volume of 30 microLiter using Platinum SYBR Green qPCR supermix UDG with Rox (Invitrogen, Carlsbad, Calif.) in an ABI-7000 (Applied Biosystems, Carlsbad, Calif.), with an activation step of 50° C. for 2 min, denaturation at 95° C. for 2 min and amplification for 45 cycles at 95° C.-15 sec, 50° C.-30 sec, 72° C.-30 sec, followed by dissociation to confirm that only one product was obtained.
Referring now to FIG. 4A, the stromal-cell-derived factor-1 alpha (SDF-1a)/CXCR4 axis has been implicated in HSPC trafficking and homing. The study evaluated whether the improved homing of dmPGE2-treated HSPC was the result of increased SDF-1a/CXCR4 signalling.
To evaluate CXCR4, Lineage^neg mouse bone marrow cells or CD34^+ UCB were treated on ice with either 1 microMolar dmPGE2 or vehicle control for 2 hours, washed, and then cultured in RPMI-1640/10% HI-FBS at 37° C. for 24 hours, stained for SKL (murine cells) or CD34 (human) and CXCR4 and analyzed by FACS. Referring now to FIG. 4A, CXCR4 expression on murine KL and SKL cells and human CD34^+ UCB cells 24 hours after treatment with dmPGE2. Data are expressed as Mean±SEM % change in mean fluorescence intensity (MFI) of CXCR4 due to treatment with dmPGE2 or vehicle (n=3).

`CCCCC[C@H](O)/C=C/[C@H]1[C@H](O)CC(=O)[C@@H]1C/C=C\CCCC(=O)O` [PGE2, Prostaglandin E2] was tested, and the “increase in in vivo marrow homing efficiency” value (SKL cells) was ~2 fold, the “SKL cells homed to the marrow” value (SKL cells; 16 hours) was “higher proportion” and the time post-exposure of (maximal) CXCR4 mRNA upregulation (CXCR4 mRNA) was 6 h.
In the case of `CCCCC(C)(C)[C@H](O)/C=C/[C@H]1[C@H](O)CC(=O)[C@@H]1C/C=C\CCCC(=O)O` [dmPGE2, 16,16-dimethyl prostaglandin E2], the “increase in in vivo marrow homing efficiency” value (SKL cells) is reported as 2 fold, the “percentage of CFSE+ cells homing to the marrow, total WBM cells” value (SKL cells; vs vehicle-treated cells, 16 hours) is reported as “No difference” and the “SKL cells homed to the marrow” value (SKL cells; 16 hours) is reported as “significantly more SKL cells homed; also recorded: significantly greater percentage of SKL cells”. The “increase in CXCR4 mRNA” value (CXCR4 mRNA) was 2.65 fold and the “time post-exposure of (maximal) CXCR4 mRNA upregulation” value (CXCR4 mRNA) was 6 h.
